Where a name gives a salt, the structure may show the parent alone. Read-outs that look alike come from different tables or passages of the source.
Tests used:
mice [1] = conditions: formalin test, active dose of external active reference, cited from earlier work; for Dose (mg / Kg) Early Response: p.o.; for Dose (mg / Kg) Late Response: route not given
[2] = log D octanol/water distribution coefficient; assay type: physicochemical
Excerpt: Lipophilicity has been correlated to various drug properties, affecting permeability, absorption, distribution, plasma protein binding, metabolism, elimination, and toxicity. In contrast to honokiol and magnolol, compounds claimed in the invention, and more particularly those wherein the nitrogen atom in the group -O-CH(phenyl)-(CH2)p-NH-R^3 is protonated and the compound further comprises a pharmaceutically acceptable counter-anion present an optimal log Doctanol/water (range 0-3), indicating good aqueous solubility, permeability, oral absorption, and blood-brain barrier penetration. Experimental studies in murine models have confirmed the results.
Absorption, distribution and metabolism studies in vitro with selected examples were performed in order to determine pharmacokinetic parameters such as permeability (or absorption constant), intrinsic clearance (or metabolic clearance), and bioavailability. Physicochemical properties such as water solubility, pKa, log P, and log Doctanol/water, and in vitro experimental studies such as permeability in Caco2 cells, and protein binding in the mouse, stability in murine microsomes, chemical stability at different pH and stability in plasma were evaluated for the pharmacokinetic prediction in mice.

EGFR = target: T1, EGFR (Homo sapiens, UniProt P00533); test: EGF receptor tyrosine-protein kinase inhibition (ELISA of Poly[Glu:Tyr-P]); assay type: biochemical
T1 construct: EGF receptor tyrosin-protein kinase activity was assessed in human A431 cells; endogenous in cells; host or cells: human A431 cells
Procedure: EGF receptor tyrosin-protein kinase activity was assessed in human A431 cells using as a substrate Poly(Glu:Tyr) at 10 µg/ml with a preincubation and incubation times of 15 and 60 min, respectively, at 25°C respectively in 50 mM HEPES pH 7.4, 20 mM MgCl2 and 0.2 mM Na3VO4. An ELISA quantification method of Poly[Glu:Tyr-P] was employed (Cheng, K. and Koland, J.G. J Biol Chem, 1996, 271, 311-318). Table 5. Inhibition of EGFR at 10 µM

tumor brain U-87 MG = test: Tumor cell proliferation assay (alamarBlue); assay type: cell-based; conditions: Homo sapiens, U-87 MG
Procedure: (§1) Changes in cell proliferation were detected based on the ability of viable cells to cause alamarBlue® to change its oxidized (non-fluorescent, blue) to a reduced (fluorescent, red) form. The alamarBlue® reaction allows the quantification of cell proliferation and examination of the metabolic activity of viable cells. Test substances were examined for activity on the proliferation of human or murine tumor cell lines at assay concentrations from 0.01 to 100 µM.

tumor colon HCT-116 = test: Tumor cell proliferation assay (alamarBlue); assay type: cell-based; conditions: Homo sapiens, HCT-116
Procedure: as §1

tumor leukaemia K562 = test: Tumor cell proliferation assay (alamarBlue); assay type: cell-based; conditions: Homo sapiens, K562
Procedure: as §1

tumor liver HepG2 = test: Tumor cell proliferation assay (alamarBlue); assay type: cell-based; conditions: Homo sapiens, HepG2
Procedure: as §1

tumor lung A549 = test: Tumor cell proliferation assay (alamarBlue); assay type: cell-based; conditions: Homo sapiens, A549
Procedure: as §1

tumor ovary OVCAR-3 = test: Tumor cell proliferation assay (alamarBlue); assay type: cell-based; conditions: Homo sapiens, OVCAR-3
Procedure: as §1

tumor prostate LNCaP-FGC = test: Tumor cell proliferation assay (alamarBlue); assay type: cell-based; conditions: Homo sapiens
Procedure: as §1

tumor melanoma B16-FO = test: Tumor cell proliferation assay (alamarBlue); assay type: cell-based, murine; conditions: Mus musculus
Procedure: as §1

COX-1 = target: T2, COX-1 (Homo sapiens, UniProt P23219); test: COX-1 inhibition in human platelets (PGE2 enzyme immunoassay); assay type: biochemical; conditions: read-out: % COX-1 Inhibition
T2 construct: endogenous in cells; host or cells: human platelets
Procedure: (§2) The COX-1 inhibitory activity of representative compounds of the invention was determined according to previously reported methods. COX-1 activity was assessed in human platelets using 100 µM arachidonic acid as a substrate and preincubation and incubation times of 15 min at 37 °C in HBSS, 15 mM HEPES pH 7.4 . The quantification method used was enzyme immunoassay determination of PGE2 (Chan, C.C. et al. J Pharmacol Exp Ther, 1999, 290, 551-560; Swinney, D.C. et al. J Biol Chem, 1997, 272, 12393-12398; Warner, T.D. et al. Proc Natl Acad Sci U S A, 1999, 96, 7563-7568; Riendeau, D. et al. Can J Physiol Pharmacol, 1997, 75, 1088-1095). COX-2 inhibitory activity was determined in human recombinant insect Sf21 cells according to references (Warner, T.D. et al., Proc Natl Acad Sci, USA. 1999;96(13):7563-7568; Riendeau, D. et al., Can J Physiol Pharmacol, 1997 ;75(9):1088-1095). Briefly, the COX-2 inhibitory activity was assessed on human recombinant insect Sf21 cells using 0.3 µM arachidonic acid as a substrate and preincubation and incubation times of 15 and 5 min, respectively, at 37 °C in 100 mM Tris-HCl, pH 7.7. The quantification method used was enzyme immunoassay determination of PGE2. Table 11. Inhibition of COX-1 and COX-2 at 10 µM

COX-2 = target: T3, COX-2 (Homo sapiens, UniProt P35354); test: COX-2 inhibition (PGE2 enzyme immunoassay); assay type: biochemical; conditions: read-out: % COX-2 inhibition
T3 construct: host or cells: Sf21 insect cells
T3 sequence (P35354 18-604): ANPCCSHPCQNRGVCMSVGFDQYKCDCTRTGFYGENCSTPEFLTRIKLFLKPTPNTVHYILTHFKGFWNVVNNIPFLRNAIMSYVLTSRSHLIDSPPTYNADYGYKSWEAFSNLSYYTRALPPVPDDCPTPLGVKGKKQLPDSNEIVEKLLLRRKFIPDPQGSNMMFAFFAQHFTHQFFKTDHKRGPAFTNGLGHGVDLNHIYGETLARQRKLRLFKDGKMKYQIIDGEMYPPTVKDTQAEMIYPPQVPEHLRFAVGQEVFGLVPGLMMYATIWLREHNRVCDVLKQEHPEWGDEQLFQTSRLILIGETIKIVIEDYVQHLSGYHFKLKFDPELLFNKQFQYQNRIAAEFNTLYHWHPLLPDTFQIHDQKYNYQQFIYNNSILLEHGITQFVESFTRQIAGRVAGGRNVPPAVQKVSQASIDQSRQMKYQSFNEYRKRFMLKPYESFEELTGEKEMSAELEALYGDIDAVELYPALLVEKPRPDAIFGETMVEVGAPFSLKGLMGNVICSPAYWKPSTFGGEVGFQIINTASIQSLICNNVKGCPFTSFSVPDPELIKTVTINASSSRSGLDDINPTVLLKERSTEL
Procedure: as §2

5-LO = target: T4, 5-LO (Homo sapiens, UniProt P09917); test: 5-Lipoxygenase inhibition (LTB4 enzyme immunoassay); assay type: biochemical
T4 construct: host or cells: Sf9 insect cells
T4 sequence (P09917 1-674): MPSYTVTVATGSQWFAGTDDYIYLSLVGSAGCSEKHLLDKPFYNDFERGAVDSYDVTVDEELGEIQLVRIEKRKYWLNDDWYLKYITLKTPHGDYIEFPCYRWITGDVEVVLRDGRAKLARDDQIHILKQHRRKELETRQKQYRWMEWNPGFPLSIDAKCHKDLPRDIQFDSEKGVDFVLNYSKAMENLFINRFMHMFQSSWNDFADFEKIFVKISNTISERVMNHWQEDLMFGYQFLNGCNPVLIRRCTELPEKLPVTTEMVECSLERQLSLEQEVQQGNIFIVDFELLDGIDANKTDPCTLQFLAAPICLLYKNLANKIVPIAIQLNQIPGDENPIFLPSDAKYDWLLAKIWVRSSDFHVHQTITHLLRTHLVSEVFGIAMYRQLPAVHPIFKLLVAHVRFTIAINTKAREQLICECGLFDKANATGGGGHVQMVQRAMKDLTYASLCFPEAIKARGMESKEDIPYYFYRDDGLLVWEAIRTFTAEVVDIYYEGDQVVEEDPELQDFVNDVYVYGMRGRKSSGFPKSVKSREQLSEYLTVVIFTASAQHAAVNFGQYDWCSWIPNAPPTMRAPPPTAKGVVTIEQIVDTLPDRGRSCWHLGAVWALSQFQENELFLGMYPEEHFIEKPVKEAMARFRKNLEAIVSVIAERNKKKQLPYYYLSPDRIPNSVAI
Procedure: The 5-LO-inhibitory activity of compounds of the invention was determined using previously reported assays. Briefly, lipoxygenase activity was evaluated in human recombinant insect Sf9 cells using 3µM arachidonic acid as a substrate with a preincubation and incubation times of 15 and 5 min respectively at 25°C in a 50 mM Tris-HCl, pH 7.4, 2 mM CaCl2, 1 mM ATP. The quantification method used was enzyme immunoassay determination of LTB4 and the significance criteria were established with a response equal or different of the maximum stimulation or inhibition (Noguchi, M. et al., Eur J Biochem, 1994, 222(2), 285-292; Percival, M.D. et al., Eur J Biochem, 1992, 210(1), 109-117).

mice [3] = test: Formalin test (antinociceptive activity); assay type: in vivo; conditions: formalin test, dose 10 mg/Kg i.p.
Procedure: The chemical irritant formalin test is used as a chronic pain model in animals. The s.c. administration of formalin to the paw of a mouse produces a biphasic nociceptive behavioral response, an early response (0-5 min after injection) and a late response (20-30 min after injection) (Hunskaar, S., Fasmer, O.B., Hole, K. Formalin test in mice, a useful technique for evaluating mild analgesics. J Neurosci Methods, 1985 ;14(1):69-76).
Aspirine and paracetamol are included as external active references in early and late response. Table 12. Early and late response inhibition in the formalin test.

[4] = Maximum Tolerated Dose after acute administration; conditions: mouse, in vivo, po, mice
Procedure: The Maximum Tolerated Dose (MTD) in mice was determined for selected compounds. The protocol of the studies was in accordance with the standard guidelines for drug development: • (htp://dtp.nci.nih.gov/branches/btb/acute tox.html). Table 10. Maximum Tolerated Doses in mice after acute i.p. administration

[5] = 5-LO, at 10 µM, read-out: % Inhibition

T2 sequence (P23219 24-599): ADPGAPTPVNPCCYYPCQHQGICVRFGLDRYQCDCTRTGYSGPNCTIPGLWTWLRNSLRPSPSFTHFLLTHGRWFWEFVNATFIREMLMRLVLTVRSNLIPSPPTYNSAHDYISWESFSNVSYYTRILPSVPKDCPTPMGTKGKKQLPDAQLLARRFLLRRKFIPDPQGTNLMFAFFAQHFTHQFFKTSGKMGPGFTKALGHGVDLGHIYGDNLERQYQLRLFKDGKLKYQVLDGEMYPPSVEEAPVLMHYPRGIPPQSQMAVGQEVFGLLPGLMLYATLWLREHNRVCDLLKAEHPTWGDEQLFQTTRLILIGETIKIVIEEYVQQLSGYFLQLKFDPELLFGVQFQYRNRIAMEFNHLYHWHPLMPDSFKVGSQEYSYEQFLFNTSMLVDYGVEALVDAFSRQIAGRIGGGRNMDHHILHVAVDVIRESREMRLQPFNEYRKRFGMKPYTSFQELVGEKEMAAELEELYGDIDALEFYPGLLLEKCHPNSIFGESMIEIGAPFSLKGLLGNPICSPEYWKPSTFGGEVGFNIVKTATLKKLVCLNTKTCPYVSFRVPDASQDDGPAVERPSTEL
T1 sequence (P00533 25-1210): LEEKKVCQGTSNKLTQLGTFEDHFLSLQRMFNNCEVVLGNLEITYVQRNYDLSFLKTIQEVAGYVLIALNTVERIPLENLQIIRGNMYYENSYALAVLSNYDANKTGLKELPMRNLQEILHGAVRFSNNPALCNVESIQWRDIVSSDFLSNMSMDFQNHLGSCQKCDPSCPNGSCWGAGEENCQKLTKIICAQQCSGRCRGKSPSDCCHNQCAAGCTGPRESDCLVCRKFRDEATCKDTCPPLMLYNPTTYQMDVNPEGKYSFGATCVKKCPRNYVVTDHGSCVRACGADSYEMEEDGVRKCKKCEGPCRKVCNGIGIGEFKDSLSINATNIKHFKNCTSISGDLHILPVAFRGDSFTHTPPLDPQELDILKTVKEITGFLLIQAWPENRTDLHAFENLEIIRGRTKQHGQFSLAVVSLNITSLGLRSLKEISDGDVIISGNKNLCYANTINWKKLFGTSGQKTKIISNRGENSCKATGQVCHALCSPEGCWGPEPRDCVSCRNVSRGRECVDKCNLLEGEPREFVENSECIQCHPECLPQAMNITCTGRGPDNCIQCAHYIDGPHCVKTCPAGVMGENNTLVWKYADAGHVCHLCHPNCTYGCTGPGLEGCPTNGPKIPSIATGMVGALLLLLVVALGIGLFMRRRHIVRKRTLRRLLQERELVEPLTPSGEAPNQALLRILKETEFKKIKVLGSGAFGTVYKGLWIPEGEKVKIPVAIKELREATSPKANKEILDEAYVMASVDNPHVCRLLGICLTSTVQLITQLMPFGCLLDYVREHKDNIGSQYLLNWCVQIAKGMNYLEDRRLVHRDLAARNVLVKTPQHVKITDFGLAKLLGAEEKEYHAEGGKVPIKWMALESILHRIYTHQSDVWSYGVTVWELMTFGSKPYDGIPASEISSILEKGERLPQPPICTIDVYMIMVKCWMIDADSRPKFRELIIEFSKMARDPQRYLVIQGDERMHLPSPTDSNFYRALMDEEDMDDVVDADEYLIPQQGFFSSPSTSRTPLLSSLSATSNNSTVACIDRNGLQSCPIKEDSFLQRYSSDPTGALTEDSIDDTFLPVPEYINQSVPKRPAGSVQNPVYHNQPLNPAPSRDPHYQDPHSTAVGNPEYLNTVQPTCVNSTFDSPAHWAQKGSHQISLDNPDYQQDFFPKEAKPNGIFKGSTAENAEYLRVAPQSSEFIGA

In the case of `CC(=O)Oc1ccccc1C(=O)O` [Aspirin], the “Dose (mg / Kg) Early Response” value (mice [1]) is given as 200-400 p.o. mg / Kg and the “Dose (mg / Kg) Late Response” value (mice [1]) is given as 300 to 400 mg/kg.
In the case of `CC(=O)Nc1ccc(O)cc1` [Paracetamol], the “Dose (mg / Kg) Early Response” value (mice [1]) is listed as 200-400 p.o. mg / Kg and the “Dose (mg / Kg) Late Response” value (mice [1]) is listed as 300 to 400 mg/kg.
Work on `C=CCc1ccc(O)c(-c2cc(CC=C)ccc2O)c1` [Magnolol, reference compound] yielded a logDoctanol/water [2] of 5.25, an inhibition at 10 µM (EGFR) of -26% and an IC50 (tumor brain U-87 MG) of 48 µM. It also gave an IC50 (tumor colon HCT-116) of 17 µM, an IC50 (tumor leukaemia K562) of 48 µM and an IC50 (tumor liver HepG2) of 12 µM. For the same compound, the IC50 (tumor lung A549) was 19 µM, the IC50 (tumor ovary OVCAR-3) was 23 µM and the IC50 (tumor prostate LNCaP-FGC) was 5.1 µM. It also gave an IC50 (tumor melanoma B16-FO) of 28 µM, an inhibition at 10 µM (COX-1) of 21% and an inhibition at 10 µM (COX-2) of 95%. For the same compound, the inhibition at 10 µM (5-LO) was 67%.
`CCCc1ccc(O)c(-c2ccc(OC(CCNC)c3ccccc3)c(CCC)c2)c1` (stereo not drawn) [Example 6, 4'-[3-(Methylamino)-1-phenylpropoxy]-3',5-dipropylbiphenyl-2-ol hydrochloride] gave an inhibition at 10 µM (5-LO; [5]) of 100%.
For `CN1CC[C@]23c4c5ccc(O)c4O[C@H]2[C@@H](O)C=C[C@H]3[C@H]1C5` [Morphine, reference compound], the “Early Response” value (mice [3]; early response 0-5 min) was “active” and the “Late Response” value (mice [3]; late response 20-30 min) was “active”.
For `C=CCc1ccc(OC(CCNC)c2ccccc2)c(-c2ccc(O)c(CC=C)c2)c1.Cl` (stereo not drawn) [Example 4, 3,5'-Diallyl-2'-[3-(methylamino)-1-phenylpropoxy]biphenyl-4-ol hydrochloride], the MTD [4] was 30 mg/kg, the inhibition at 10 µM (COX-1; at 10 µM, human platelets) was 81% and the inhibition at 10 µM (COX-2; at 10 µM) was 0%. For the same compound, the inhibition at 10 µM (5-LO; [5]) was 100%.

— EP2423181A1, “Multitarget substituted biphenyl diol derivatives” (PROUS INSTITUTE FOR BIOMEDICAL RESEARCH S.A., priority 2010, dated 2012)
